# Measured values from patent US20050153395A1, “Unique integrin binding site in connective tissue growth factor (CTGF)” (CHILDREN'S HOSPITAL INC., priority 2003, published 2005).
# Legend:
# [1] = target: integrin αvβ3 (Homo sapiens, UniProt P05106+P06756); assay: Integrin αvβ3-CTGF immunoprecipitation / immunoblot; type: binding; conditions: 20 μM Echistatin
# Protocol: To further characterize the interaction between CTGF4 and integrin αvβ3, each CTGF isoforms (CTGF1-4, CTGF3-4, CTGF4) was individually mixed with αvβ3, followed by immunoprecipitation with rabbit anti-CTGF polyclonal antibody and immunoblotting with anti-αvβ3. Human integrin αvβ3 (2 μg) and each individual CTGF isoform (4 μg) were incubated in 1 ml NP40 buffer with rocking at 4° C. for 2 hours. As a control, 20 μM Echistatin was added prior to adding the CTGF isoforms. Subsequently, polyclonal rabbit anti-CTGF antibody (1:100) or mouse IgG was added to the complex and the mixtures were further incubated at 4° C. for 16 hours. After incubation, 25 ,μl of Protein A was added to each mixture for 1 hour. The samples were separated on 8% SDS-polyacrylamide gels, and transferred onto nitrocellulose. The membrane was then incubated with anti-human αvβ3 monoclonal antibody (1:1000) diluted in TBS/Tween 20 (0.05%) containing 5% non-fat milk. Integrin αvβ3 bound similarly to all CTGF isoforms.
# [2] = target: T1, β3 integrin (Homo sapiens, UniProt P05106); conditions: Gould et al. 1990; cited from earlier work
# T1 sequence (P05106 27-788): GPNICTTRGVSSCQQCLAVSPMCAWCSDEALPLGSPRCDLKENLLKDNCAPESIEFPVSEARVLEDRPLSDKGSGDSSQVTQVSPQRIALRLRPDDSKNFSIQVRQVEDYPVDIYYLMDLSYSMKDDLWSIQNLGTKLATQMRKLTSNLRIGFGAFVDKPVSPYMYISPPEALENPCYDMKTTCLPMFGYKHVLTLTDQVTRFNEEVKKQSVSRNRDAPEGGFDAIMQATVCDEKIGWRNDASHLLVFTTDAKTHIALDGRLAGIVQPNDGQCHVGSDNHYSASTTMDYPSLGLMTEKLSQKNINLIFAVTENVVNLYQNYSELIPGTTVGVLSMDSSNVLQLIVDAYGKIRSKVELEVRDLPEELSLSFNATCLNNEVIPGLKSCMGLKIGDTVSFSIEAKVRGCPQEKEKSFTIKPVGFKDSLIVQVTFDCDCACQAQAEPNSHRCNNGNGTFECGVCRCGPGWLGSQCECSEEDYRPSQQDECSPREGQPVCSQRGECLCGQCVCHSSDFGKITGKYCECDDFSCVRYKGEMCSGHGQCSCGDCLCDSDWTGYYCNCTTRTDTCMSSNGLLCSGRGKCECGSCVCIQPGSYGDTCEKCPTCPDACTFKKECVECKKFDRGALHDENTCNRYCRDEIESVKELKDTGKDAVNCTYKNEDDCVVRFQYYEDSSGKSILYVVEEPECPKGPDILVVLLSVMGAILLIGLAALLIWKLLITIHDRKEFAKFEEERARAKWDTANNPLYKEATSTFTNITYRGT
# [3] = system: hepatic stellate cells (HSC); assay: HSC adhesion assay on coated wells (CyQUANT fluorescence); type: cell-based, rat; conditions: for inhibition of HSC adherence to CTGF[257-272]: peptide-coated wells; for inhibition of HSC adherence to CTGF[257-272] / inhibition of CTGF4-mediated HSC adhesion: heparin 2 μg/ml; for inhibition of CTGF1-4-mediated HSC adhesion: wells coated 2 μg/ml CTGF1-4; for inhibition of CTGF1-4-mediated HSC adhesion / inhibition of CTGF3-4-mediated HSC adhesion / inhibition of CTGF4-mediated HSC adhesion: EDTA 10 mM, GRGDsp 1 mM, Echistatin 2 μM; for inhibition of CTGF3-4-mediated HSC adhesion: wells coated 2 μg/ml CTGF3-4; for inhibition of CTGF4-mediated HSC adhesion: wells coated 2 μg/ml CTGF4, antibody/IgG 25 μg/ml
# Protocol: CTGF4 is known to be expressed in hepatic stellate cells (HSC) and to induce proliferation and extracellular matrix (ECM) production in these cells. (Williams et al., J Hepatol 32, 754-761, 2000; Paradis et al., Lab Invest 82, 767-774, 2002). The following experiments were carried out to determine if HSCs adhere to CTGF. HSCs were isolated from normal Sprague-Dowley rate by sequential perfusion with pronase/collagenase and purified by density gradient separation as described in Vyas et al. (Gastroenterology 109: 889-898, 1995).
# The cells were subsequently detached using 1 mM EDTA PBS (137 mM NaCl, 2.7 mM KCl, 4.3 mM Na2HPO4, 1.4 mM KH2PO4, pH 7.3), washed twice in DMEM and resuspended in serum free medium containing 0.5% BSA. The cells-were plated (1.25×10^4 cells/well) in a 96 well plate coated with one of the following: 2 μg/ml CTGF isoform (CTGF1-4, CTGF3-4, CTGF4), 1 μg/ml laminin, or 4 μg/ml vitronectin and incubated for 20 minutes at 37° C. Subsequently the cells were washed with PBS and the adherent cells were fixed with 10% formalin and stained with CyQUANT GR dye/cell lysis buffer (Molecular Probes , Eugene, Oreg.) according to the manufacturer's instructions. The number of cells that adhered to CTGF isoforms or ECM protein was quantified by measuring the sample fluorescence intensity at Ex/Em: 480/520 nm using a micro-plate reader (CytoFluor™ 2350).
# To determine if the CTGF-mediated HSC adhesion was carried out through integrin receptors, the experiment described above were carried out in the presence and absence of 10 mM EDTA. […] It is widely believed that Mn^2+ induces conformational shifts that mimic the physiological activation of β1 and β3 integrins (Roberts et al., J Biol Chem 278: 1975-1985, 2003, van der Pauw et al., J Periodontal Res 37: 317-323, 2002) as Mn^2+-induced activation leads to enhanced ligand-binding affinity and cell adhesion (Mould et al., J Biol Chem 277: 19800-19805, 2002, Loftus & Liddington J Clin Invest 100: S77-81, 1997, Lin et al., J Biol Chem 272: 14236-14243, […]).
# Synthetic peptides GRGDsp (1 mM), GRGEsp (1 mM), Echistatin (2 μM) or vehicle buffer alone were added to the, HSC culture medium 30 minutes prior to plating.
# In addition, adhesion assays as described in Example 1 were carried out in CTGF4 coated plates in the presence and absence of monoclonal antibody specific for αvβ3 (LM609).
# [4] = system: pancreatic stellate cells (PSC); assay: PSC adhesion assay on coated wells; type: cell-based, rat; conditions: for inhibition of PSC adhesion to CTGF4: 2 μg/ml CTGF4 coat, peptides 35 μM; for inhibition of PSC adhesion to CTGF4 / inhibition of PSC adhesion to CTGF1-4: antibodies 25 μg/ml, heparin 2 μg/ml
# From the text: Rat PSCs were isolated by a modification of the method described by Phillips et al., Gut; 52:677-82, 2003. Briefly, pancreatic tissue was digested in situ with 0.03% collagenase P (Roche, Indianapolis, Ind.) in HBSS by perfusion through the thoracic aorta. This protocol was approved by the Institutional Animal Care and Use Committee of Children's Research Institute, Columbus, Ohio. The tissue was pooled, minced with scissors, and then digested with 0.05% collagenase P, 0.02% protease XIV (Sigma, St. Louis), and DNase I (Roche, Indianapolis, Ind.) in HBSS. The resulting cell suspension was centrifuged in a 12% Optiprep gradient at 1400 g for 14 minutes. Stellate cells separated into a hazy band just above the interface of a the gradient and the aqueous buffer. This band was harvested, and the cells washed and resuspended in DMEM supplemented with 25 mM Hepes buffer, 10% FBS, and 100 U/ml penicillin in, 100 μg/ml streptomycin. The, cells were maintained at 37° C. in a humidified atmosphere of 5% CO2/95% air.
# The ability of activated PSC to adhere to non-tissue culture plastic microtiter wells coated with recombinant CTGF1-4, CTGF3-4 or CTGF4 was investigated. The solid phase binding assay was carried out as described in Example 2. […] To assess the possibility that CTGF-mediated PSC adhesion involved cell surface integrins, the effect of divalent cations on cell adhesion was examined, as described in Example 2. […]
# Because CTGF is a heparin-binding protein, this property was further investigated.
# To identify the peptides that bind to PSCs, cell adhesion assays were carried out as described in Example 3.
# To further investigate the peptide binding, P2 or P5 (10 μM) or vehicle buffer alone (no add) were added to PSC cell suspensions for 30 minutes at room temperature.
# [5] = system: vascular endothelial cells, intestinal epithelial, and hepatic stellate cells; assay: Adhesion of cell types to 10 kDa CTGF; type: cell-based
# Protocol: To confirm the functionality of residues 247-349 of SEQ ID NO: 1 (containing module 4 alone; denoted as CTGF4), this region of CTGF was produced as a maltose binding protein (MBP) fusion protein in E. coli as described in Ball et al., J Endocrinol; 176: R1-R7, 2003. […] HPLC-purified 10 kDa CTGF promoted 3T3 cell adhesion in a dose-dependent manner, with maximal binding at 8 ng/well. […] Also, the binding of all cell types to 10 kDa CTGF was reduced by EDTA treatment, though this effect was relatively modest in 3T3 cells. Thus, E coli-derived CTGF isoforms comprising essentially module 4 are intrinsically functional in the absence of the other constituent modules of CTGF.
# [6] = target: integrin α5β1 (Homo sapiens, UniProt P05556+P08648); assay: Solid phase ELISA of integrin α5β1 binding; conditions: peptides 35 μM; EDTA 5 mM
# integrin α5β1, sequence (P08648 42-894 limits assumed): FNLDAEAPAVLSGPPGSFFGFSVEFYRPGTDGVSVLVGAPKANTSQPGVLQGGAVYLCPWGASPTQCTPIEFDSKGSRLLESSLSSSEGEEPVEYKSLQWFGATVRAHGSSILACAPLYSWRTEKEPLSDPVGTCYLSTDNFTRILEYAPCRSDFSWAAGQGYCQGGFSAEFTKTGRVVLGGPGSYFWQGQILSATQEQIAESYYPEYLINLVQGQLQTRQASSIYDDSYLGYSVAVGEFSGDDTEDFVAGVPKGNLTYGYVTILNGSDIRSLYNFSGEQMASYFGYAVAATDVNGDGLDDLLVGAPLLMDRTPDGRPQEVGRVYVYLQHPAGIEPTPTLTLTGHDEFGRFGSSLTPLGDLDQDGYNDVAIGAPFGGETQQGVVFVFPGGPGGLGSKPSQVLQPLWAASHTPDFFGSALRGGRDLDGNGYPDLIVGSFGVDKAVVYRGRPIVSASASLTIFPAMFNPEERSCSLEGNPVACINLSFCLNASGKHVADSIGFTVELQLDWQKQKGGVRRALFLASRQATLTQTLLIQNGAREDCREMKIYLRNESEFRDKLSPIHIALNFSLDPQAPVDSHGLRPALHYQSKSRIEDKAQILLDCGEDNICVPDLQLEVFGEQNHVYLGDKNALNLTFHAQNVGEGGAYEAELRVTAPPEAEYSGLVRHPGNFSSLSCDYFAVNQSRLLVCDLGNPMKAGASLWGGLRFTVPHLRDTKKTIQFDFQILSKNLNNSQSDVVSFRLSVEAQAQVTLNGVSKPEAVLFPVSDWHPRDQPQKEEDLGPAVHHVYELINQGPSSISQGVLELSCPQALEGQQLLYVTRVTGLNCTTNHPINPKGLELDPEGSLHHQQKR
# integrin α5β1, sequence (P08648 895-1049 partner limits assumed): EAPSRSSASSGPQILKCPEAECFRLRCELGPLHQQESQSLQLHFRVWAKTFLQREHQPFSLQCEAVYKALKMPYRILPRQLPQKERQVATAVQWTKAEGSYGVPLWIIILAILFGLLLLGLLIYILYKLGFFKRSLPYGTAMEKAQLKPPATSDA
# integrin α5β1, sequence (P05556 21-798): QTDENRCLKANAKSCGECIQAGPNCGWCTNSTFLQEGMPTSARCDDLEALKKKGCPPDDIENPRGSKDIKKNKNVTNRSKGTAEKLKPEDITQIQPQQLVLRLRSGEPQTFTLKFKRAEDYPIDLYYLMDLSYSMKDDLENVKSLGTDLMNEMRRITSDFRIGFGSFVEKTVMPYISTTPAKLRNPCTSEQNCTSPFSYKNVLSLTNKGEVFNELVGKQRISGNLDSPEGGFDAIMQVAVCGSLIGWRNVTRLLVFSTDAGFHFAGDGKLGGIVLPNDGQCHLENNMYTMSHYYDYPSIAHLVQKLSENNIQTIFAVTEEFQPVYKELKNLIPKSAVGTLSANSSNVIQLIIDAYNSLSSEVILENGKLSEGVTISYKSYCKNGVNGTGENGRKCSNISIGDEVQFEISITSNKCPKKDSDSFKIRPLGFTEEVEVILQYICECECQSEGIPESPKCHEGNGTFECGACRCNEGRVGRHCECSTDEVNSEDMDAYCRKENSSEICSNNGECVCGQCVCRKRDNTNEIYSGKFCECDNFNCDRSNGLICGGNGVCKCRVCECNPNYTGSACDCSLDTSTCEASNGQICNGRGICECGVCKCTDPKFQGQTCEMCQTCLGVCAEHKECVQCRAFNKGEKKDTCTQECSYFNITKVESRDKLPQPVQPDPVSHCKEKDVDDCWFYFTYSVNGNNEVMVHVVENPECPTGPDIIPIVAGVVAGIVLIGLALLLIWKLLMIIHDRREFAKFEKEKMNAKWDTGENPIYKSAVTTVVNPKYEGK
# Protocol: In a second approach, a solid phase binding assay was used in which CTGF1-4 or FN were individually coated onto microtiter wells that were subsequently incubated with purified integrin α5β1. The presence of immobilized integrin α5β1 was detected by ELISA using an anti-integrin α5β1 antibody similar to the methods described in Example 3 above. In addition, CTGF1-4 bound to integrin α5β1 in a dose-dependent manner, with maximal binding at 2 μg/ml CTGF. This level of CTGF1-4 (2 μg/ml) binding was the same as that elicited by 2 μg/ml FN, a well known ligand of integrin α5β1. In a similar experiment, 2 μg/ml of CTGF1-4;CTGF3-4 or CTGF4 were individually precoated onto microtiter wells. Using the solid-phase assay, integrin α5β1 bound to CTGF1-4, CTGF3-4 or CTGF4 See FIG. 5 (Panel B).
# To directly analyze whether α5β1 integrin binds to CTGF4, microtiter wells coated with CTGF4 (2 μg/ml) or FN (4 μg/ml) were used in an ELISA assay to detect integrin binding, as described in Example 3. For these assays, 1 μg/ml integrin α5β1, alone or in the presence of 35 μM of P2peptide (CTGF[257-272]) and 35 μM of P5 peptide (CTGF [285-291]), were added to the precoated plates. […] The binding between CTGF4 and integrin α5 β1 was blocked by peptide P5 (CTGF [285-291]) or peptide P2 (CTGF[257-272]). […]
# [7] = system: PSCs; assay: PSC chemotaxis (migration) assay in culture insert; type: cell-based, rat
# Protocol: To examine whether CTGF plays a role in PSC migration, a chemotaxis assay was carried out in which the migratory behavior of PSCs in the upper chamber of a culture insert was assessed following addition of CTGF to the lower chamber. […] PSC migration was also promoted by FN, PDGF or TGF-β1.
# [8] = system: CTGF promoter; assay: CTGF promoter luciferase reporter pCCN2-Luc in PSCs; type: cell-based, rat
# Protocol: TGF-β1 is a well characterized transcriptional activator of CTGF in other cell types. To further examine the mechanism by which TGF-β1 and other fibrogenic stimulators could influence CTGF production in PSCs, CTGF promoter activity in PSCs was evaluated using the luciferase reporter, pCCN2-Luc, as described in Gao et al., (J Hepatol 2004;40:431-8).
# [9] = system: CTGF; assay: CTGF production by PSCs (immunoprecipitation); type: cell-based, rat; conditions: TGF-β1 20 ng/ml; P<0.01
# [10] = system: PSCs; assay: PSC DNA synthesis, [3H]thymidine incorporation; type: cell-based, rat; conditions: 24 hours; CTGF1-4 effect in 0.1% serum, not in serum-free medium
# Protocol: To measure the effect of CTGF on cell proliferation, DNA synthesis was measured by ^3H incorporation in PSCs. The cells were incubated for 24 hours with 0.2 μCi [^3H] thymidine in each well (24-well plate). The incorporation of [^3H] thymidine into PSC DNA was determined using a scintillation counter after the cells had been washed with PBS, fixed with 10% methanol, treated with cold 5% trichloroacetic acid, and lysed in 0.3 N NaOH.
# integrin αvβ3, sequence (P06756 31-889 limits assumed, one chain of several): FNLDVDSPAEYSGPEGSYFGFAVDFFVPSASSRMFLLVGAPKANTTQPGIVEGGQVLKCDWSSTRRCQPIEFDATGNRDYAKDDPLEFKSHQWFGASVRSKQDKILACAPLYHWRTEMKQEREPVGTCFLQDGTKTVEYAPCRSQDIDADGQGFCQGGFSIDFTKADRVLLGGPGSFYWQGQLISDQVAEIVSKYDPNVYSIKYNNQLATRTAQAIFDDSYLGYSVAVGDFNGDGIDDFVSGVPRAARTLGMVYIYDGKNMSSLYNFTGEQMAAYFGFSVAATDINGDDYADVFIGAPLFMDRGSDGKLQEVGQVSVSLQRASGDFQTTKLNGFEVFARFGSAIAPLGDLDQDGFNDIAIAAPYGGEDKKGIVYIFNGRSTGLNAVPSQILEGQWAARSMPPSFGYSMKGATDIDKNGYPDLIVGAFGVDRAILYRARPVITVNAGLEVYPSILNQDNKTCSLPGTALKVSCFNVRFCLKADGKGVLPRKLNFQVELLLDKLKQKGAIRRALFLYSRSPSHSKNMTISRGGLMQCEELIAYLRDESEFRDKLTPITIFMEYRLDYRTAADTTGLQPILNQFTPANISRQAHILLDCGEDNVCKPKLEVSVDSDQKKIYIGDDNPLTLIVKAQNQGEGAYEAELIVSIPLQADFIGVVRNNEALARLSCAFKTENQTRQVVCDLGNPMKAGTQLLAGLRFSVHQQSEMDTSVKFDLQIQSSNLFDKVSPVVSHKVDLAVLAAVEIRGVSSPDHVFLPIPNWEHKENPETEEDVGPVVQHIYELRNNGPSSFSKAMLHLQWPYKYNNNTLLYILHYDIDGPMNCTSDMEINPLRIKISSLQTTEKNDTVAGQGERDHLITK
# integrin αvβ3, sequence (P06756 891-1048 partner limits assumed, one chain of several): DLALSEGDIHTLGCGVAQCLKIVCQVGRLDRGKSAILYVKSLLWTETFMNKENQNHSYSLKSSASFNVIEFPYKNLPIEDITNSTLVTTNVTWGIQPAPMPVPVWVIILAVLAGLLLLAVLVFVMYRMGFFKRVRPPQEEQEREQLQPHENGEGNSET
compound,measurement,setting,value
Echistatin (QCESGPCCRNCKFLKEGTICKRARGDDMDDYCNGKTCDCPRNPHKGPAT),competition for the binding of αvβ3 with CTGF4,[1],fully competed
same,effectiveness relative to short RGDX peptides,[2],at least 500 times
same,inhibition of HSC adherence to CTGF[257-272],[3],40%
same,inhibition of CTGF1-4-mediated HSC adhesion,[3],58%
same,inhibition of CTGF3-4-mediated HSC adhesion,[3],62%
same,inhibition of CTGF4-mediated HSC adhesion,[3],69%
"O=C(O)CN(CCN(CC(=O)O)CC(=O)O)CC(=O)O [EDTA, reference compound]",inhibition of PSC adhesion to CTGF4,[4]; EDTA 5 mM,significantly decreased
same,inhibition of PSC adhesion to CTGF3-4,[4]; EDTA 5 mM,significantly decreased
same,inhibition of PSC adhesion to CTGF1-4,[4]; EDTA 5 mM,significantly decreased
same,binding of all cell types to 10 kDa CTGF after EDTA treatment,[5]; effect relatively modest in 3T3 cells,reduced
same,inhibition of binding between CTGF4 and integrin α5β1,[6],blocked
same,inhibition of CTGF1-4-mediated HSC adhesion,[3],50%
same,inhibition of CTGF3-4-mediated HSC adhesion,[3],50%
same,inhibition of CTGF4-mediated HSC adhesion,[3],90%
heparin,inhibition of PSC adhesion to CTGF4,[4]; EDTA 5 mM,blocked
same,inhibition of PSC adhesion to CTGF1-4,[4]; EDTA 5 mM,blocked
same,inhibition of FN-mediated PSC adhesion,[4]; fibronectin coat,little effect
same,inhibition of PSC migration in response to CTGF,[7]; CTGF1-4 or CTGF4,blocked
same,inhibition of binding of each cell type to 10 kDa CTGF,"[5]; 5 μg/ml heparin, each cell type incl. 3T3",completely inhibited
same,inhibition of HSC adherence to CTGF[257-272],[3],abrogated
same,inhibition of CTGF4-mediated HSC adhesion,[3],completely abrogated
same,inhibition of vitronectin-mediated HSC adhesion,[3]; wells coated 4 μg/ml vitronectin,little effect
TGF-β1: transcriptional activator of CTGF,activity of pCCN2-Luc in PSC,[8]; P<0.01 compared with no stimulation,significantly increased
same,activation of pCCN2-Luc compared among four stimulators,[8]; P<0.05,strongest activation
same,PSC migration,[7]; substance in lower chamber,promoted
same,"CTGF1-4, CTGF3-4 and CTGF4 levels in cell lysates and conditioned medium",[9],significantly increased
same,PSC proliferation (DNA synthesis),[10],did not induce proliferation
